Values after ≈ are worked out from the molar mass of the structure shown.
conditions: buffer; pH 7.4; 200.0 µM

solubility kinetic [µg/mL] | SMILES
26.8 (≈ 84.7 µM) | CCOC(=O)C1CCN(S(=O)(=O)c2c(C)noc2C)CC1
13.8 (≈ 42.8 µM) | CN(Cc1cc2ccccc2[nH]c1=O)C(=O)COc1ccccc1
5.5 (≈ 17.2 µM) | CCCCOc1ccc(C(=O)OCC(=O)NC2CCCC2)cc1
> 50 | COC(=O)c1ccc(COC(=O)CNC(=O)c2cccs2)cc1
1.1 (≈ 3.95 µM) | O=c1oc2c(O)cccc2cc1-c1nc2ccccc2[nH]1
1 (≈ 3.57 µM) | CCc1ccc2oc(C(=O)Nc3cccnc3)c(C)c2c1
> 48.1 | O=C(O)C1CCN(S(=O)(=O)c2cccc3cccnc23)CC1
49 | Cc1ccc(-c2nc(N3CCN(C)CC3)c3ccccc3n2)cc1.Cl
> 44.8 | COc1ccc(Cl)cc1NC(=O)NN1CCN(C)CC1
> 37.5 | COc1ccc(/C(C)=N/N2CCOCC2)c(O)c1
< 0.3 | O=[N+]([O-])c1cccc(N=Cc2sc3ccccc3c2O)c1
3.8 (≈ 11.7 µM) | CC(C)(C)c1ccc(-c2noc(CNC(=O)c3ccco3)n2)cc1
40.6 (≈ 131 µM) | Cc1ccn2cc(CCNC(=O)COc3ccccc3)nc2c1
10.6 (≈ 39.8 µM) | O=C(Nc1ccc(Cl)c([N+](=O)[O-])c1)c1ccco1
1 (≈ 2.92 µM) | Cc1ccc2[nH]c(=O)c3cc(C(=O)NCC4CCCO4)sc3c2c1 (centres undefined)
38.5 (≈ 140 µM) | CCc1cccc2c1NC(=O)C2(O)N1CCCC(C)C1 (centres undefined)
40.5 (≈ 143 µM) | Cc1nc(NC(=O)C2CCCCC2C(=O)O)sc1C (centres undefined)
37.1 (≈ 135 µM) | CC1CCN(C(=O)CCNC(=O)c2ccccc2)CC1
> 41.3 | Cl.O=C(CN1CCCC1)Nc1cccc(Cl)c1
2.8 (≈ 10.2 µM) | CNc1nc(NCc2ccccc2)nc(N)c1[N+](=O)[O-]

solubility kinetic [µg/mL] | SMILES
> 46.9 | COc1ccccc1NC(=O)CCNC(=O)c1ccc(C)cc1
> 55.1 | COc1ccc(NC(=O)CC2C(=O)NCCN2C(=O)c2ccccc2)cc1 (centres undefined)
> 46.4 | O=C(NCCc1ccccc1)c1ccc2[nH]c(=O)c(=O)[nH]c2c1
2.2 (≈ 6.8 µM) | CCC(=O)c1cn(CCOc2ccccc2OC)c2ccccc12
> 46.3 | Cc1ccc(S(=O)(=O)/N=C(\N)c2ccc(Cl)cc2)cc1
> 39.2 | CCOC(=O)CN1C(=O)CC(c2ccccc2)C1=O (centres undefined)
> 46.1 | CC(=O)C1=C(C)NC(=S)NC1c1cc([N+](=O)[O-])ccc1O (centres undefined)
38.1 (≈ 141 µM) | O=[N+]([O-])c1cc2c(cc1C=Nc1ccccc1)OCO2
2.2 (≈ 4.79 µM) | CCOc1ccc(S(=O)(=O)/N=C(/Nc2ccc(S(N)(=O)=O)cc2)c2ccccc2)cc1
> 38.6 | CCn1cc(S(=O)(=O)NC2CCCCC2)cn1
> 39.7 | CC1CCc2c(sc3ncn(CCO)c(=O)c23)C1 (centres undefined)
> 49.4 | CS(=O)(=O)c1ccc(C(=O)OC2CCOC2=O)cc1[N+](=O)[O-] (centres undefined)
0.9 (≈ 2.7 µM) | CN(C)S(=O)(=O)c1ccc(C(=O)OCCc2ccccc2)cc1
3.7 (≈ 10.2 µM) | CN(CC(=O)Nc1cccc(Cl)c1)C1=NS(=O)(=O)c2ccccc21
> 43.6 | O=C(CSc1n[nH]c(=O)n1C1CC1)Nc1ccccc1
> 38.3 | C/C(=N\Nc1ccccc1C(=O)O)c1ccncc1
20.7 (≈ 75.2 µM) | CSc1nc(-c2ccccc2F)c(C#N)c(=O)n1C
1.5 (≈ 4.53 µM) | O=C(Cn1c(=O)oc2ccccc21)NCCc1ccccc1Cl
> 41.3 | O=C(N/N=C/c1cccc2ccccc12)c1cccnc1
< 0.4 | Cc1cc(NC(=O)c2ccc(COc3ccccc3Cl)o2)no1

solubility kinetic [µg/mL] | SMILES
12.6 (≈ 35.4 µM) | CCCCOc1ccc(N2CC(C(=O)NCc3ccco3)CC2=O)cc1 (centres undefined)
> 49 | COc1cccc(C(O)c2nc3ccccc3n2C(C)C)c1OC (centres undefined)
42.4 (≈ 137 µM) | Cc1ccccc1C(=O)NCC(C)NC(=O)c1ccccc1C (centres undefined)
13.4 (≈ 37.7 µM) | COC(=O)c1ccccc1NC(=S)N1CCN(c2ccccc2)CC1
8.5 (≈ 24.9 µM) | CC1CCCCC12NC(=O)N(CC(=O)c1ccc(Cl)s1)C2=O (centres undefined)
> 50.7 | CC(=O)Nc1cccc2c1C(=O)N(c1cccc(OC(C)=O)c1)C2=O
32 (≈ 114 µM) | CC(C)n1cnc2cc(NCc3ccccc3O)ccc21
> 56.3 | COCCCn1c(SCC(=O)NC2CCCC2)nnc1-c1ccncc1
29.7 (≈ 65 µM) | O=C(CNC(=O)c1ccc(Cl)cc1Cl)OCc1cn2cc(Br)ccc2n1
> 45.8 | COc1ccc(CC(=O)OCC(=O)N2CCCC(C)C2)cc1 (centres undefined)
30.4 (≈ 108 µM) | CC1=C([N+](=O)[O-])C(c2ccc(Cl)cc2)NC(=O)N1C (centres undefined)
> 42.2 | COc1ccc(NS(=O)(=O)c2cn(C)nc2C)cc1
45.4 (≈ 141 µM) | CCn1c(=O)c2sccc2n(CC(=O)NC2CCCC2)c1=O
> 39.8 | COc1ccc(C=O)cc1OC(=O)N1CCOCC1
> 43.3 | CN1CCN(S(=O)(=O)Cc2ccccc2Cl)CC1
> 63.7 | O=C(CCc1nc(-c2ccc(F)cc2)no1)NCc1ccccc1CN1CCOCC1
31.8 (≈ 74.9 µM) | CC(C)Oc1ccc(S(=O)(=O)N2CCOCC2)cc1NC(=O)Cc1ccsc1
< 0.7 | Cc1ccc(C23CC4CC(CC(C(=O)NC(C)C)(C4)C2)C3)cc1

SMILES | solubility kinetic [µg/mL]
C=Cc1ccc(Cn2c(C(=O)O)c(C=O)c3ccccc32)cc1 | > 45.8

Reference: PubChem BioAssay AID1996
